Measured values from ChEMBL document CHEMBL5500371, “Arginine and tryptophan-rich dendritic antimicrobial peptides that disrupt membranes for bacterial infection in vivo” (Eur J Med Chem, 2024).
Converted amounts (≈) assume the structure as drawn. The source made the active and inactive calls. The rule behind the calls is not given here. Where a SMILES comes first, the peptide text is derived from it. Side-chain parts run from the residue outwards.

Experiments:
Staphylococcus aureus [1] = experiment: Antibacterial activity against Staphylococcus aureus ATCC 25923 assessed as inhibition of bacterial growth incubated for 20 hrs by broth microdilution method; assay type: functional
Bacillus subtilis = experiment: Antibacterial activity against Bacillus subtilis ATCC 23857 assessed as inhibition of bacterial growth incubated for 20 hrs by broth microdilution method; assay type: functional
Acinetobacter baumannii = experiment: Antibacterial activity against Acinetobacter baumannii ATCC 19606 assessed as inhibition of bacterial growth incubated for 20 hrs by broth microdilution method; assay type: functional
Klebsiella pneumoniae = experiment: Antibacterial activity against Klebsiella pneumoniae ATCC 700603 assessed as inhibition of bacterial growth incubated for 20 hrs by broth microdilution method; assay type: functional
Escherichia coli [2] = experiment: Antibacterial activity against Escherichia coli ATCC 25922 assessed as inhibition of bacterial growth incubated for 20 hrs by broth microdilution method; assay type: functional
Pseudomonas aeruginosa = experiment: Antibacterial activity against Pseudomonas aeruginosa ATCC 27853 assessed as inhibition of bacterial growth incubated for 20 hrs by broth microdilution method; assay type: functional
Staphylococcus aureus [3] = experiment: Antibacterial activity against Staphylococcus aureus ATCC 25923 assessed as inhibition of bacterial growth by measuring fold increase in MIC incubated for 20 hrs in presence of NaCl by broth microdilution method relative to control; assay type: functional
Staphylococcus aureus [4] = experiment: Antibacterial activity against Staphylococcus aureus ATCC 25923 assessed as inhibition of bacterial growth by measuring fold increase in MIC incubated for 20 hrs in presence of KCl by broth microdilution method relative to control; assay type: functional
Staphylococcus aureus [5] = experiment: Antibacterial activity against Staphylococcus aureus ATCC 25923 assessed as inhibition of bacterial growth by measuring fold increase in MIC incubated for 20 hrs in presence of MgCl2 by broth microdilution method relative to control; assay type: functional
Staphylococcus aureus [6] = experiment: Antibacterial activity against Staphylococcus aureus ATCC 25923 assessed as inhibition of bacterial growth by measuring fold increase in MIC incubated for 20 hrs in presence of FeCl3 by broth microdilution method relative to control; assay type: functional
Staphylococcus aureus [7] = experiment: Antibacterial activity against Staphylococcus aureus ATCC 25923 assessed as inhibition of bacterial growth by measuring fold increase in MIC incubated for 20 hrs in presence of ZnCl2 by broth microdilution method relative to control; assay type: functional
Escherichia coli [8] = experiment: Antibacterial activity against Escherichia coli ATCC 25922 assessed as inhibition of bacterial growth preincubated with 10% mouse serum for 1 hr and measured after 20 hrs by broth microdilution method; assay type: functional
Escherichia coli [9] = experiment: Antibacterial activity against Escherichia coli ATCC 25922 assessed as inhibition of bacterial growth preincubated with 10% mouse serum for 6 hrs and measured after 20 hrs by broth microdilution method; assay type: functional
[10] = Therapeutic index, ratio of MHC10 for hemolytic activity in mouse erythrocytes preincubated with 10% mouse serum for 1 hr to MIC for Escherichia coli ATCC 25922 preincubated with 10% mouse serum for 1 hr; assay type: toxicity, cell-based; settings: mouse erythrocytes, read-out: TI
Staphylococcus aureus [11] = experiment: Antibacterial activity against Staphylococcus aureus ATCC 25923 assessed as inhibition of bacterial growth preincubated with 10% mouse serum for 1 hr and measured after 20 hrs by broth microdilution method; assay type: functional
Staphylococcus aureus [12] = experiment: Antibacterial activity against Staphylococcus aureus ATCC 25923 assessed as inhibition of bacterial growth preincubated with 10% mouse serum for 6 hrs and measured after 20 hrs by broth microdilution method; assay type: functional
[13] = Hemolytic activity in mouse erythrocytes at 256 uM preincubated for 1 to 6 hr with 10% mouse serum and measured after 1 hr by absorbance based analysis; assay type: toxicity, cell-based, Erythrocyte; settings: time 1-7 hrs, read-out: Activity
[14] = Stability in mouse serum assessed as half life at 10 mM measured upto 24 hrs by RP-HPLC analysis; assay type: ADME, cell-free
Cell membrane [15] = experiment: Induction of cytoplasmic membrane depolarization in Staphylococcus aureus assessed as increase in fluorescence intensity at >1 times MIC measured within 1 min by DISC3-5 dye based fluorescence analysis
Cell membrane [16] = experiment: Induction of cell membrane damage in Staphylococcus aureus assessed as increase in PI uptake at 2 times MIC measured after 2 hrs by PI dye based flow cytometry analysis; assay type: cell membranes
Cell membrane [17] = experiment: Disruption of cell membrane morphology in Escherichia coli assessed as release of cellular contents at 2 times MIC measured after 0.5 to 2 hrs by SEM analysis; assay type: cell membranes; settings: time 0.5-2 hrs
Cell membrane [18] = experiment: Disruption of cell membrane morphology in Escherichia coli assessed as loss of intact cell morphology at 2 times MIC measured after 0.5 to 2 hrs by SEM analysis; assay type: cell membranes; settings: time 0.5-2 hrs
Cell membrane [19] = experiment: Disruption of cell membrane morphology in Staphylococcus aureus assessed as release of cellular contents at 2 times MIC measured after 0.5 to 2 hrs by SEM analysis; assay type: cell membranes; settings: time 0.5-2 hrs
Escherichia coli [20] = experiment: Resistant development in Escherichia coli assessed as increase in MIC at sub-MIC in presence of gentamicin measured after 20 passages; assay type: functional, organism-based
Staphylococcus aureus [21] = experiment: Resistant development in Staphylococcus aureus assessed as increase in MIC at sub-MIC in presence of rifampicin measured after 20 passages; assay type: functional, organism-based
Staphylococcus aureus [22] = experiment: Resistant development in Staphylococcus aureus assessed as increase in MIC at sub-MIC in presence of gentamicin measured after 20 passages; assay type: functional, organism-based
Escherichia coli [23] = experiment: Additive antibacterial activity against Escherichia coli ATCC 25922 assessed as fractional inhibitory concentration index at 0.25 to 4 times MIC incubated for 20 hrs in presence of vancomycin by checkerboard assay; assay type: functional
Staphylococcus aureus [24] = experiment: Additive antibacterial activity against Staphylococcus aureus ATCC 25923 assessed as fractional inhibitory concentration index at 0.25 to 4 times MIC incubated for 20 hrs in presence of vancomycin by checkerboard assay; assay type: functional
Staphylococcus aureus [25] = experiment: Additive antibacterial activity against Staphylococcus aureus ATCC 25923 assessed as fractional inhibitory concentration index at 0.25 to 4 times MIC incubated for 20 hrs in presence of kanamycin by checkerboard assay; assay type: functional
Staphylococcus aureus [26] = experiment: Synergistic antibacterial activity against Staphylococcus aureus ATCC 25923 assessed as fractional inhibitory concentration index at 0.25 to 4 times MIC incubated for 20 hrs in presence of gentamicin by checkerboard assay; assay type: functional
[27] = Acute toxicity in male BALB/c mouse assessed as animal death at 80 mg/kg, ip administered as single dose and measured after 3 days; assay type: organism-based; settings: in vivo, 72 h, time 3 day
Escherichia coli [28] = experiment: […] activity against Escherichia coli ATCC 25922 infected in male BALB/c pulmonary infection model assessed as reduction in infiltration of pneumonia cells at 5 to 10 mg/kg, ip administered at 3 and 12 hrs post infection and measured 24 hrs post infection by H and E staining based analysis; assay type: functional, organism-based; settings: dose 5-10 mg/kg, time 12-21 hrs
Staphylococcus aureus [29] = experiment: Antibacterial activity against Staphylococcus aureus ATCC 25923 assessed as inhibition of bacterial growth incubated for 20 hrs in presence of FeCl3 by broth microdilution method (reference value: 16 microM); assay type: functional
Staphylococcus aureus [30] = experiment: Antibacterial activity against Staphylococcus aureus ATCC 25923 assessed as inhibition of bacterial growth incubated for 20 hrs in presence of ZnCl2 by broth microdilution method (reference value: 16 microM); assay type: functional
Escherichia coli [31] = experiment: Synergistic antibacterial activity against gentamicin resistant Escherichia coli ATCC 25922 assessed as fractional inhibitory concentration index at 0.25 to 4 times MIC incubated for 20 hrs in presence of gentamicin by checkerboard assay; assay type: functional

In the case of `N=C(N)NCCC[C@H](NC(=O)[C@H](CCCNC(=N)N)NC(=O)[C@H](CCCNC(=N)N)NC(=O)[C@@H](N)CCCNC(=N)N)C(=O)N[C@@H](CCCCN)C(=O)N[C@@H](Cc1c[nH]c2ccccc12)C(=O)N[C@@H](Cc1c[nH]c2ccccc12)C(=O)N[C@@H](Cc1c[nH]c2ccccc12)C(=O)N[C@@H](Cc1c[nH]c2ccccc12)C(N)=O`, the MIC (Staphylococcus aureus [1]) is reported as 8 µM (≈ 12.1 µg/mL), the MIC (Bacillus subtilis) is reported as 4 µM (≈ 6.06 µg/mL) and the MIC (Acinetobacter baumannii) is reported as 64 µM (≈ 96.9 µg/mL). It also gave an MIC (Klebsiella pneumoniae) of 32 µM (≈ 48.5 µg/mL), an MIC (Escherichia coli [2]) of 8 µM (≈ 12.1 µg/mL) and an MIC (Pseudomonas aeruginosa) of 16 µM (≈ 24.2 µg/mL). The “fold change (FC)” value (Staphylococcus aureus [3]) was “<=2”, the “fold change (FC)” value (Staphylococcus aureus [4]) was “<=2” and the “fold change (FC)” value (Staphylococcus aureus [5]) was “<=2”. For the same compound, the “fold change (FC)” value (Staphylococcus aureus [6]) was “<=2”, the “fold change (FC)” value (Staphylococcus aureus [7]) was “<=2” and the MIC (Escherichia coli [8]; time 21 hrs) was 2 µM (≈ 3.03 µg/mL). The MIC (Escherichia coli [9]; time 26 hrs) was 4 µM (≈ 6.06 µg/mL), the selectivity ratio [10] was 0.5 and the MIC (Staphylococcus aureus [11]; time 21 hrs) was 2 µM (≈ 3.03 µg/mL). It also gave an MIC (Staphylococcus aureus [12]; time 21 hrs) of 2 µM (≈ 3.03 µg/mL), a hemolysis at 1 h, 256 µM [13] of under 10% and a half-life at 10000 µM [14] of 258 min. For the same compound, the Activity (Cell membrane [15]) was “Active”, the Activity (Cell membrane [16]) was “inactive” and the Activity (Cell membrane [17]) was “Active”. For the same compound, the Activity (Cell membrane [18]) was “Active”, the Activity (Cell membrane [19]) was “Active” and the Activity (Escherichia coli [20]) was “inactive”. For the same compound, the Activity (Staphylococcus aureus [21]) was “inactive”, the Activity (Staphylococcus aureus [22]) was “inactive” and the “fractional inhibitory concentration index (FICI)” value (Escherichia coli [23]) was 0.625. For the same compound, the “fractional inhibitory concentration index (FICI)” value (Staphylococcus aureus [24]) was 0.563, the “fractional inhibitory concentration index (FICI)” value (Staphylococcus aureus [25]) was 0.563 and the “fractional inhibitory concentration index (FICI)” value (Staphylococcus aureus [26]) was 0.375. For the same compound, the Activity [27] was “Non-Toxic” and the Activity (Escherichia coli [28]) was “Active”.

Work on `N=C(N)NCCC[C@H](NC(=O)[C@@H](N)CCCNC(=N)N)C(=O)NCCCC[C@H](NC(=O)[C@H](CCCNC(=N)N)NC(=O)[C@@H](N)CCCNC(=N)N)C(=O)N[C@@H](Cc1c[nH]c2ccccc12)C(=O)N[C@@H](Cc1c[nH]c2ccccc12)C(=O)N[C@@H](Cc1c[nH]c2ccccc12)C(=O)N[C@@H](Cc1c[nH]c2ccccc12)C(N)=O` (H-RRK([Arg-Arg])WWWW-NH2) yielded an MIC (Staphylococcus aureus [1]) of 16 µM (≈ 24.2 µg/mL), an MIC (Bacillus subtilis) of 4 µM (≈ 6.06 µg/mL) and an MIC (Acinetobacter baumannii) of 32 µM (≈ 48.5 µg/mL). It also gave an MIC (Klebsiella pneumoniae) of 64 µM (≈ 96.9 µg/mL), an MIC (Escherichia coli [2]) of 16 µM (≈ 24.2 µg/mL) and an MIC (Pseudomonas aeruginosa) of 8 µM (≈ 12.1 µg/mL). For the same compound, the MIC (Staphylococcus aureus [29]) was 8 µM, the MIC (Staphylococcus aureus [30]) was 16 µM and the “fold change (FC)” value (Staphylococcus aureus [3]) was “<=2”. For the same compound, the “fold change (FC)” value (Staphylococcus aureus [4]) was “<=2”, the “fold change (FC)” value (Staphylococcus aureus [5]) was “<=2” and the “fold change (FC)” value (Staphylococcus aureus [6]) was “<=2”. The “fold change (FC)” value (Staphylococcus aureus [7]) was “<=2”, the MIC (Escherichia coli [8]; time 21 hrs) was 1 µM (≈ 1.51 µg/mL) and the MIC (Escherichia coli [9]; time 26 hrs) was 2 µM (≈ 3.03 µg/mL). It also gave a selectivity ratio [10] of 1, an MIC (Staphylococcus aureus [11]; time 21 hrs) of 1 µM (≈ 1.51 µg/mL) and an MIC (Staphylococcus aureus [12]; time 21 hrs) of 1 µM (≈ 1.51 µg/mL). The hemolysis at 1 h, 256 µM [13] was under 10%, the half-life at 10000 µM [14] was 443 min and the Activity (Cell membrane [15]) was “Active”. For the same compound, the Activity (Cell membrane [16]) was “inactive”, the Activity (Cell membrane [17]) was “Active” and the Activity (Cell membrane [18]) was “Active”. The Activity (Cell membrane [19]) was “Active”, the Activity (Escherichia coli [20]) was “inactive” and the Activity (Staphylococcus aureus [21]) was “inactive”. The Activity (Staphylococcus aureus [22]) was “inactive”, the “fractional inhibitory concentration index (FICI)” value (Escherichia coli [23]) was 0.563 and the “fractional inhibitory concentration index (FICI)” value (Escherichia coli [31]) was 5. The “fractional inhibitory concentration index (FICI)” value (Staphylococcus aureus [24]) was 0.563, the “fractional inhibitory concentration index (FICI)” value (Staphylococcus aureus [25]) was 0.563 and the “fractional inhibitory concentration index (FICI)” value (Staphylococcus aureus [26]) was 0.313. The Activity [27] was “Non-Toxic” and the Activity (Escherichia coli [28]) was “Active”.

With POLYMYXIN B the MIC (Staphylococcus aureus [1]) was 16 µM, the MIC (Bacillus subtilis) was 4 µM and the MIC (Acinetobacter baumannii) was 2 µM. For the same compound, the MIC (Klebsiella pneumoniae) was 4 µM, the MIC (Escherichia coli [2]) was 4 µM and the MIC (Pseudomonas aeruginosa) was 4 µM. It also gave an MIC (Staphylococcus aureus [29]) of 16 µM, an MIC (Staphylococcus aureus [30]) of 16 µM and a fold change (FC) (Staphylococcus aureus [3]) of 4. For the same compound, the fold change (FC) (Staphylococcus aureus [4]) was under 2, the fold change (FC) (Staphylococcus aureus [5]) was under 2 and the fold change (FC) (Staphylococcus aureus [6]) was under 2. The fold change (FC) (Staphylococcus aureus [7]) was under 2, the MIC (Escherichia coli [8]; time 21.0 hrs) was 1 µM and the MIC (Escherichia coli [9]; time 26.0 hrs) was 2 µM. For the same compound, the MIC (Staphylococcus aureus [11]; time 21.0 hrs) was 1 µM, the MIC (Staphylococcus aureus [12]; time 21.0 hrs) was 1 µM and the fractional inhibitory concentration index (FICI) (Escherichia coli [31]) was 0.312. It also gave a fractional inhibitory concentration index (FICI) (Staphylococcus aureus [24]) of 0.563, a fractional inhibitory concentration index (FICI) (Staphylococcus aureus [25]) of 0.563 and a fractional inhibitory concentration index (FICI) (Staphylococcus aureus [26]) of 0.313.
